How the values were obtained:
Experiment in all cases: viability relative to DMSO control (fraction); higher = less drug effect (more viable cells)
Settings in all cases: 48 h
[1] = system: primary AML patient cells (S002)
Method in brief: (§1)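 The cells were primary mononuclear tumour cells, either fresh or cryopreserved, isolated by Ficoll from blood or bone marrow or derived from processed lymph node. Each well of a 384-well plate received 4 × 10^4 cells onto compounds pre-plated at five concentrations, with one well per concentration. The medium was RPMI-1640 with penicillin/streptomycin, L-glutamine and human serum, and plates stood at 37 °C and 5% CO2 for 48 h. Viability is reported as CellTiter-Glo luminescence relative to the median of 16 inner DMSO wells.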

[2] = system: primary AML patient cells (S007)
Method in brief: as §1

[3] = system: primary AML patient cells (S009)
Method in brief: as §1

[4] = system: primary AML patient cells (S019)
Method in brief: as §1

[5] = system: primary AML patient cells (S037)
Method in brief: as §1

[6] = system: primary AML patient cells (S055)
Method in brief: as §1

[7] = system: primary AML patient cells (S071)
Method in brief: as §1

[8] = system: primary AML patient cells (S072)
Method in brief: as §1

[9] = system: primary AML patient cells (S079)
Method in brief: as §1

[10] = system: primary AML patient cells (S089)
Method in brief: as §1

[11] = system: primary AML patient cells (S091)
Method in brief: as §1

[12] = system: primary DLBCL patient cells (S049)
Method in brief: as §1

[13] = system: primary DLBCL patient cells (S076)
Method in brief: as §1

[14] = system: primary DLBCL patient cells (S082)
Method in brief: as §1

[15] = system: primary MCL patient cells (S041)
Method in brief: as §1

[16] = system: primary T-NHL patient cells (S058)
Method in brief: as §1

[17] = system: primary T-PLL patient cells (S008)
Method in brief: as §1

Nc1ccc2ncnc(NCCc3ccc(Oc4ccccc4)cc3)c2c1 [EVP4593]
viability ([1]; 0.008 µM): 0.922 | viability ([1]; 0.04 µM): 0.857 | viability ([1]; 0.2 µM): 0.753 | viability ([1]; 1 µM): 0.668 | viability ([1]; 5 µM): 0.726 | viability ([2]; 0.008 µM): 0.722 | viability ([2]; 0.04 µM): 0.514 | viability ([2]; 0.2 µM): 0.379 | viability ([2]; 1 µM): 0.257 | viability ([2]; 5 µM): 0.217 | viability ([3]; 0.008 µM): 0.792 | viability ([3]; 0.04 µM): 0.705 | viability ([3]; 0.2 µM): 0.749 | viability ([3]; 1 µM): 0.636 | viability ([3]; 5 µM): 0.691 | viability ([4]; 0.008 µM): 0.922 | viability ([4]; 0.04 µM): 0.883 | viability ([4]; 0.2 µM): 0.84 | viability ([4]; 1 µM): 0.82 | viability ([4]; 5 µM): 0.764 | viability ([5]; 0.008 µM): 0.943 | viability ([5]; 0.04 µM): 0.813 | viability ([5]; 0.2 µM): 0.859 | viability ([5]; 1 µM): 1.08 | viability ([5]; 5 µM): 1.07 | viability ([6]; 0.008 µM): 0.913 | viability ([6]; 0.04 µM): 0.853 | viability ([6]; 0.2 µM): 0.791 | viability ([6]; 1 µM): 0.828 | viability ([6]; 5 µM): 0.828 | viability ([7]; 0.008 µM): 0.768 | viability ([7]; 0.04 µM): 0.684 | viability ([7]; 0.2 µM): 0.351 | viability ([7]; 1 µM): 0.158 | viability ([7]; 5 µM): 0.121 | viability ([8]; 0.008 µM): 0.844 | viability ([8]; 0.04 µM): 0.823 | viability ([8]; 0.2 µM): 0.772 | viability ([8]; 1 µM): 0.637 | viability ([8]; 5 µM): 0.652 | viability ([9]; 0.008 µM): 0.818 | viability ([9]; 0.04 µM): 0.84 | viability ([9]; 0.2 µM): 0.806 | viability ([9]; 1 µM): 0.675 | viability ([9]; 5 µM): 0.646 | viability ([10]; 0.008 µM): 0.701 | viability ([10]; 0.04 µM): 0.737 | viability ([10]; 0.2 µM): 0.629 | viability ([10]; 1 µM): 0.44 | viability ([10]; 5 µM): 0.215 | viability ([11]; 0.008 µM): 0.891 | viability ([11]; 0.04 µM): 0.837 | viability ([11]; 0.2 µM): 0.869 | viability ([11]; 1 µM): 0.624 | viability ([11]; 5 µM): 0.532 | viability ([12]; 0.008 µM): 0.89 | viability ([12]; 0.04 µM): 0.763 | viability ([12]; 0.2 µM): 0.37 | viability ([12]; 1 µM): 0.257 | viability ([12]; 5 µM): 0.197 | viability ([13]; 0.008 µM): 0.999 | viability ([13]; 0.04 µM): 0.989 | viability ([13]; 0.2 µM): 0.741 | viability ([13]; 1 µM): 0.657 | viability ([13]; 5 µM): 0.551 | viability ([14]; 0.008 µM): 0.83 | viability ([14]; 0.04 µM): 0.736 | viability ([14]; 0.2 µM): 0.588 | viability ([14]; 1 µM): 0.462 | viability ([14]; 5 µM): 0.452 | viability ([15]; 0.008 µM): 0.902 | viability ([15]; 0.04 µM): 0.93 | viability ([15]; 0.2 µM): 0.873 | viability ([15]; 1 µM): 0.716 | viability ([15]; 5 µM): 0.729 | viability ([16]; 0.008 µM): 1.09 | viability ([16]; 0.04 µM): 0.934 | viability ([16]; 0.2 µM): 0.784 | viability ([16]; 1 µM): 0.809 | viability ([16]; 5 µM): 0.715 | viability ([17]; 0.008 µM): 0.997 | viability ([17]; 0.04 µM): 0.971 | viability ([17]; 0.2 µM): 0.894 | viability ([17]; 1 µM): 0.861 | viability ([17]; 5 µM): 0.868

Source: the supplement of paper PMC10733146
